# Data reported in patent US20150065416A1, “NOVEL DRUG COMBINATION” (FAB PHARMA SAS, priority 2013, published 2015).
# Where two headings read alike, the source gives them in different places.
# Assays:
# Type in all cases: cell-based, Acinetobacter baumannii
# [1] = tested on: A. baumannii CIP 5377, CIP 7034, AYE, SAN, RCH; test: Antimicrobial susceptibility testing (MIC, broth microdilution, EUCAST; Example 5); details: Acinetobacter baumannii
# Excerpt: A. baumannii CIP 5377 (ATCC® 17978): low cephalosporinase producing strain, susceptible to meropenem and amikacin, isolated in an infected patient
# A. baumannii CIP 7034: low cephalosporinase producing strain, susceptible to meropenem and amikacin A. baumannii AYE ATCC® BAA1710™: extended spectrum beta-lactamase producing strain susceptible to meropenem and resistant to amikacin
# A. baumannii SAN-94040 (SAN): cephalosporinase-overproducing strain, susceptible to meropenem and intermediate to amikacin and resistant to fluoroquinolones, isolated from blood cultures of an intensive care patient with nosocomial pneumonia from North Africa (Algeria).
# A. baumannii RCH-69: cephalosporinase producing strain; low susceptibility to imipenem and resistant to amikacin.
# [2] = tested on: A. baumannii isolates; test: Individual antimicrobial susceptibility testing (MIC, broth microdilution, CLSI)
# Method: In the antimicrobial susceptibility testing 77 isolates of A. baumannii (from 2010) in the following sub-groups were tested: • 22 isolates generally susceptible to antimicrobial agents (“Sus”) • 20 carbapenem-resistant isolates (e.g. “MPM-R”) • 20 aminoglycoside-resistant isolates (e.g. “AMK-R”) • 15 colistin-resistant isolates. (e.g. “COL-R”)
# Minimum inhibitory concentration (MIC) endpoints were determined by broth microdilution according to CLSI guidelines (CLSI, M7-A8 & M100-S22, 2012). Panels were prepared at IHMA using cation-adjusted Mueller-Hinton broth. Colonies were taken directly from a second-pass culture plate and prepared to a suspension equivalent of the 0.5 McFarland standard using normal saline.
# Testing was carried out as described in the General Procedures to determine minimum inhibitory concentration (MIC) end points for compound (I), amikacin, colistin, gentamicin, meropenem and tobramycin, for 77 A. baumannii isolates. Under the “MIC (μg/ml)” heading, the first column (Range) indicates the MIC end points for the particular number (N) of isolates tested, the second column (50%) provides an estimate of the concentration that inhibits 50% (MIC50) of bacterial isolates tested, and the third column (90%) provides an estimate of the concentration that inhibits 90% of the bacterial isolates tested.
# [3] = tested on: A. baumannii isolates; test: Checkerboard testing (compound (I)/antibacterial agent interaction, FIC index)
# Method: Checkerboard interaction studies were performed using 5 isolates from each of the sub-groups and time kill studies were performed using 3 isolates from each sub-group.
# Checkerboards (20 isolates, 5 per sub-group) were prepared so as to contain multiple concentrations of compound (I) with different additional antibacterial agents (amikacin, gentamicin, colistin, meropenem and tobramycin) as follows:
# Serial two-fold dilutions of the antimicrobial agents alone or in combination in wells of 96 well microtiter plates were inoculated with the appropriate inoculum so that each well contained approximately 4-5×10^4 CFU/ml. Plates were incubated at 35° C. for 16-20 hours. Combination concentrations were tested between 0.25×MIC and 2×MIC. Growth and sterility controls were also included in each plate.
# Synergy, indifference and antagonism were calculated based upon the use of the fractional inhibitory concentration (FIC) indices as described by Pillai, Moellering & Eliopoulos (2005) whereby:
# Synergism=FIC index of ≦0.5 Indifference=FIC index >1 but ≦4 Additivity >0.5 to 1 Antagonism=FIC index of >4
# Checkerboard studies were carried out as described in General Procedures using twenty different A. baumannii isolates with 5 per sub-group of: susceptible, amikacin-resistant, colistin-resistant and meropenem-resistant.
# [4] = A. baumannii AYE, read-out: MIC
# [5] = A. baumannii CIP 5377, read-out: MIC
# [6] = A. baumannii CIP 7034, read-out: MIC
# [7] = A. baumannii RCH, read-out: MIC
# [8] = A. baumannii SAN, read-out: MIC
# [9] = Acinetobacter baumannii, All isolates, N=77
# [10] = Acinetobacter baumannii, Amikacin-resistant isolates, N=20
# [11] = Acinetobacter baumannii, Colistin-resistant isolates, N=15
# [12] = Acinetobacter baumannii, Meropenem-resistant isolates, N=20
# [13] = Acinetobacter baumannii, Susceptible isolates, N=22
# [14] = Acinetobacter baumannii, A. baumannii 441142, colistin-resistant, read-out: MIC
# [15] = Acinetobacter baumannii, A. baumannii 441160, colistin-resistant, read-out: MIC
# [16] = Acinetobacter baumannii, A. baumannii 463996, colistin-resistant, read-out: MIC
# [17] = Acinetobacter baumannii, A. baumannii 466936, colistin-resistant, read-out: MIC
# [18] = Acinetobacter baumannii, A. baumannii 618649, meropenem-resistant, read-out: MIC
# [19] = Acinetobacter baumannii, A. baumannii 625917, meropenem-resistant, read-out: MIC
# [20] = Acinetobacter baumannii, A. baumannii 628760, susceptible, read-out: MIC
# [21] = Acinetobacter baumannii, A. baumannii 637723, amikacin-resistant, read-out: MIC
# [22] = Acinetobacter baumannii, A. baumannii 638115, amikacin-resistant, read-out: MIC
# [23] = Acinetobacter baumannii, A. baumannii 650216, meropenem-resistant, read-out: MIC
# [24] = Acinetobacter baumannii, A. baumannii 655932, amikacin-resistant, read-out: MIC
# [25] = Acinetobacter baumannii, A. baumannii 661954, amikacin-resistant, read-out: MIC
# [26] = Acinetobacter baumannii, A. baumannii 667848, meropenem-resistant, read-out: MIC
# [27] = Acinetobacter baumannii, A. baumannii 668116, susceptible, read-out: MIC
# [28] = Acinetobacter baumannii, A. baumannii 668239, amikacin-resistant, read-out: MIC
# [29] = Acinetobacter baumannii, A. baumannii 670348, susceptible, read-out: MIC
# [30] = Acinetobacter baumannii, A. baumannii 671050, meropenem-resistant, read-out: MIC
# [31] = Acinetobacter baumannii, A. baumannii 672190, susceptible, read-out: MIC
# [32] = Acinetobacter baumannii, A. baumannii 674340, susceptible, read-out: MIC
# [33] = Amikacin-resistant isolates, N=20
# [34] = Acinetobacter baumannii, A. baumannii 517303, colistin-resistant, read-out: MIC
smiles,measurement,setting,value
NCC[C@H](O)C(=O)N[C@@H]1C[C@H](N)[C@@H](O[C@H]2O[C@H](CN)[C@@H](O)[C@H](O)[C@H]2O)[C@H](O)[C@H]1O[C@H]1O[C@H](CO)[C@@H](O)[C@H](N)[C@H]1O [amikacin],MIC,[1]; [4],32 µg/mL
same,MIC,[1]; [5],2 µg/mL
same,MIC,[1]; [6],8 µg/mL
same,MIC,[1]; [7],> 32 µg/mL
same,MIC,[1]; [8],4 µg/mL
same,MIC50,[2]; [9],8 µg/mL
same,MIC90,[2]; [9],> 128 µg/mL
same,MIC50,[2]; [10],> 128 µg/mL
same,MIC90,[2]; [10],> 128 µg/mL
same,MIC50,[2]; [11],64 µg/mL
same,MIC90,[2]; [11],> 128 µg/mL
same,MIC50,[2]; [12],8 µg/mL
same,MIC90,[2]; [12],128 µg/mL
same,MIC50,[2]; [13],4 µg/mL
same,MIC90,[2]; [13],8 µg/mL
same,MIC Range,"[2]; Susceptible isolates, N=22",0.25 to 8 µg/mL
same,MIC,[3]; [14],> 1020 µg/mL
same,MIC,[3]; [15],> 1020 µg/mL
same,MIC,[3]; [16],8 µg/mL
same,MIC,[3]; [17],64 µg/mL
same,MIC,"[3]; Acinetobacter baumannii, A. baumannii 517303, colistin-resistant",128 µg/mL
same,MIC,[3]; [18],4 µg/mL
same,MIC,[3]; [19],4 µg/mL
same,MIC,[3]; [20],8 µg/mL
same,MIC,[3]; [21],256 µg/mL
same,MIC,[3]; [22],1020 µg/mL
same,MIC,[3]; [23],4 µg/mL
same,MIC,[3]; [24],512 µg/mL
same,MIC,[3]; [25],512 µg/mL
same,MIC,[3]; [26],4 µg/mL
same,MIC,[3]; [27],2 µg/mL
same,MIC,[3]; [28],> 1020 µg/mL
same,MIC,[3]; [29],8 µg/mL
same,MIC,[3]; [30],8 µg/mL
same,MIC,[3]; [31],4 µg/mL
same,MIC,[3]; [32],4 µg/mL
"CCc1cc(O)c(Oc2ccc(C(N)=O)cc2F)cc1F [compound (I), 4-(4-ethyl-5-fluoro-2-hydroxyphenoxy)-3-fluorobenzamide]",MIC,"[1]; 5 isolates of A. baumannii, read-out: MICs ranging",1 to 2 µg/mL
same,MIC,[1]; [4],2 µg/mL
same,MIC,[1]; [5],2 µg/mL
same,MIC,[1]; [6],1 µg/mL
same,MIC,[1]; [7],2 µg/mL
same,MIC,[1]; [8],2 µg/mL
same,range of the majority of MICs,[2]; 77 isolates,2 to 8 µg/mL
same,MIC50,[2]; [9],4 µg/mL
same,MIC90,[2]; [9],8 µg/mL
same,MIC50,[2]; [10],4 µg/mL
same,MIC90,[2]; [10],8 µg/mL
same,MIC50,[2]; [11],4 µg/mL
same,MIC90,[2]; [11],> 32 µg/mL
same,MIC50,[2]; [12],8 µg/mL
same,MIC90,[2]; [12],8 µg/mL
same,MIC50,[2]; [13],4 µg/mL
same,MIC90,[2]; [13],8 µg/mL
same,MIC,"[2]; Acinetobacter baumannii, 77 isolates, FIG. 1 and 2, read-out: mode MIC",4 µg/mL
same,MIC Range,[2]; [33],2 to 8 µg/mL
same,MIC Range,"[2]; Susceptible isolates, N=22",0.5 to 8 µg/mL
same,MICs ranging,[2]; amikacin-R isolates,2 to 8 µg/mL
same,MICs ranging,[2]; susceptible isolates,0.5 to 8 µg/mL
same,MIC,"[3]; A. baumannii 441142, colistin-resistant",2 µg/mL
same,MIC,"[3]; A. baumannii 441160, colistin-resistant",4 µg/mL
same,MIC,"[3]; A. baumannii 463996, colistin-resistant",2 µg/mL
same,MIC,"[3]; A. baumannii 466936, colistin-resistant",16 µg/mL
same,MIC,"[3]; A. baumannii 618649, meropenem-resistant",4 µg/mL
same,MIC,"[3]; A. baumannii 638115, amikacin-resistant",8 µg/mL
same,MIC,"[3]; A. baumannii 655932, amikacin-resistant",2 µg/mL
same,MIC,"[3]; A. baumannii 661954, amikacin-resistant",8 µg/mL
same,MIC,"[3]; A. baumannii 667848, meropenem-resistant",8 µg/mL
same,MIC,"[3]; A. baumannii 670348, susceptible",4 µg/mL
same,MIC,"[3]; A. baumannii 671050, meropenem-resistant",8 µg/mL
same,MIC,"[3]; A. baumannii 672190, susceptible",4 µg/mL
same,MIC,"[3]; A. baumannii 674340, susceptible",1 µg/mL
same,MIC,[3]; [14],4 µg/mL
same,MIC,[3]; [15],8 µg/mL
same,MIC,[3]; [16],4 µg/mL
same,MIC,[3]; [17],8 µg/mL
same,MIC,[3]; [34],4 µg/mL
same,MIC,[3]; [18],2 µg/mL
same,MIC,[3]; [19],4 µg/mL
same,MIC,[3]; [20],2 µg/mL
same,MIC,[3]; [21],2 µg/mL
same,MIC,[3]; [22],4 µg/mL
same,MIC,[3]; [23],8 µg/mL
same,MIC,[3]; [24],4 µg/mL
same,MIC,[3]; [25],4 µg/mL
same,MIC,[3]; [26],4 µg/mL
same,MIC,[3]; [29],2 µg/mL
same,MIC,[3]; [30],4 µg/mL
same,MIC,[3]; [31],8 µg/mL
same,MIC,[3]; [32],2 µg/mL
C[C@@H](O)[C@H]1C(=O)N2C(C(=O)O)=C(S[C@@H]3CN[C@H](C(=O)N(C)C)C3)[C@H](C)[C@H]12 [meropenem],MIC,[1]; [4],1 µg/mL
same,MIC,[1]; [5],0.25 µg/mL
same,MIC,[1]; [6],1 µg/mL
same,MIC,[1]; [7],32 µg/mL
same,MIC,[1]; [8],1 µg/mL
same,MIC50,[2]; [9],4 µg/mL
same,MIC90,[2]; [9],> 32 µg/mL
same,MIC50,[2]; [10],2 µg/mL
same,MIC90,[2]; [10],16 µg/mL
same,MIC50,[2]; [11],32 µg/mL
same,MIC90,[2]; [11],> 32 µg/mL
same,MIC50,[2]; [12],> 32 µg/mL
same,MIC90,[2]; [12],> 32 µg/mL
same,MIC50,[2]; [13],0.25 µg/mL
same,MIC90,[2]; [13],2 µg/mL
same,MIC Range,[2]; [33],0.5 to 32 µg/mL
same,MIC Range,"[2]; Susceptible isolates, N=22",0.06 to 4 µg/mL
same,MIC,[3]; [14],64 µg/mL
same,MIC,[3]; [15],64 µg/mL
same,MIC,"[3]; Acinetobacter baumannii, A. baumannii 463996, colistin-resistant",0.125 µg/mL
same,MIC,"[3]; Acinetobacter baumannii, A. baumannii 466936, colistin-resistant",128 µg/mL
same,MIC,[3]; [34],1 µg/mL
same,MIC,[3]; [18],64 µg/mL
same,MIC,[3]; [19],64 µg/mL
same,MIC,[3]; [20],0.25 µg/mL
same,MIC,[3]; [21],1 µg/mL
same,MIC,[3]; [22],2 µg/mL
same,MIC,[3]; [23],64 µg/mL
same,MIC,[3]; [24],16 µg/mL
same,MIC,[3]; [25],1 µg/mL
same,MIC,[3]; [26],32 µg/mL
same,MIC,[3]; [27],0.5 µg/mL
same,MIC,[3]; [28],16 µg/mL
same,MIC,[3]; [29],0.5 µg/mL
same,MIC,[3]; [30],32 µg/mL
same,MIC,[3]; [31],0.5 µg/mL
same,MIC,[3]; [32],0.5 µg/mL
